Source: publication PMC11513924, “Addressing the Intracellular Vestibule of the Plasmodial Lactate Transporter PfFNT by p-Substituted Inhibitors Amplifies In Vitro Activity” (Journal of Medicinal Chemistry, 2024)

Assays:
PfFNT = molecular target: T1, PfFNT (Plasmodium falciparum, UniProt O77389); assay: Fluorescence cross-correlation spectroscopy (FCCS) competition binding to solubilized PfFNT-GFP
T1 construct: expressed in transfected cells; membranes solubilized
T1 sequence (O77389 1-309): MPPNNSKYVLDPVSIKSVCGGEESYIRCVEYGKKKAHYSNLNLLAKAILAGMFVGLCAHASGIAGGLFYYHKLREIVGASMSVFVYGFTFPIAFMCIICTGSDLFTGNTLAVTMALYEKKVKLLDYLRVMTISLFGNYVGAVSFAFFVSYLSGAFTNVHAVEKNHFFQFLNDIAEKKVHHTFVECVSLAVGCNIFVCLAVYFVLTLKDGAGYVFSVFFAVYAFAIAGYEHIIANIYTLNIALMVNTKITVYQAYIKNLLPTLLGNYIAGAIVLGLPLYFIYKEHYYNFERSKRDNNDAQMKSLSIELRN
Outline: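 Solubilized membranes from stably transfected cells expressing C-terminally GFP-tagged PfFNT were competed against BH267.meta-DY647 tracer, with competitor titrated from 100 pM to 100 μM. IC50 came from the dual-labeled complex concentration, recorded 10 × 5 s with 488/633 nm excitation; Ki calculated by Cheng-Prusoff from the tracer KD.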

P. falciparum 3D7 = P. falciparum 3D7 SCID mouse model, in vivo efficacy; set-up: species or system Plasmodium falciparum (SCID mice); conditions: oral 150 mg kg^–1 day^–1, four consecutive days, one animal
Method: (§1) The animal experiments against P. berghei were carried out at the Swiss Tropical and Public Health Institute adhering to local and national regulations of laboratory animal welfare in Switzerland (awarded permission no. BL530). Protocols are regularly reviewed and revised following approval by the local authority (Amt für Lebensmittelsicherheit and Veterinärwesen Basel-Land). Female mice infected with GFP-expressing P. berghei (ANKA strain, donated by A. P. Waters and C. J. Janse, Leiden University, The Netherlands) were analyzed for in vivo efficacy of 7e and 8a as described previously.[18],[19] Parasitemia was determined using flow cytometry with a detection limit of 1 parasite in 1000 erythrocytes. Compound activity was calculated as the difference between the mean parasitemia for the control and treated groups (n = 3, each) expressed relative to the control group. 7e and 8a were suspended in 70/30 Tween 80/ethanol, diluted 10-fold with water and administered orally 4, 24, 48, and 72 h after infection. 7e was analyzed at 30, 10, and 3 mg kg^–1, 8a at 50, and 10 mg kg^–1. In vivo efficacy against P. falciparum was conducted at The Art of Discovery, TAD, Bizkaia, Spain, according to the previously described standard assay.[16],[17]

[1] = Blood levels of compound in the SCID mouse model; assay type: in vivo
P. berghei = P. berghei mouse model, 4 day Peters' test; assay type: in vivo, Plasmodium berghei (mice)
Method: as §1

albumin = assay: Plasma protein (albumin) binding by ultracentrifugation; assay type: in vitro ADME; conditions: pooled human plasma; for albumin binding: 5 μM
Method: (§2) Clearance, half-life and plasma protein binding were assayed at TGC LifeScience, Kolkata, India, as described before.[36] Test compounds were incubated in duplicate in 96-well plates at 1 μM concentration with pooled human liver microsomes in 0.1 M phosphate buffer, pH 7.4 (0.4 mg mL^–1 final protein concentration; XenoTech, Lenexa, KS) in the presence and absence of 1 mM NADPH. Metabolism reactions were stopped by addition of 300 μL of ice-cold acetonitrile containing carbamazepine at 0.0236 μg mL^–1 as an internal standard, collection and analysis of the supernatant by LC–MS/MS (Agilent Rapid Resolution HPLC, AB SCIEX 4500 MS). The relative loss of the test compound over time was used to determine the first order rate constant for calculation of the in vitro intrinsic clearance and half-life.[37] Plasma protein binding was determined by ultracentrifugation from pooled human plasma spiked with 5 μM test compound. Aliquots were transferred immediately (total plasma concentration) or after 1 h at 37 °C (protein bound fraction) to ice-cold acetonitrile containing 0.0236 μg mL^–1 carbamazepine as an internal standard, ultracentrifuged for 4 h at 37 °C (Beckman Optima L-80XP), and analyzed by LC–MS/MS (Agilent Rapid Resolution HPLC, AB SCIEX 4500 QTRAP MS).

[2] = Microsomal clearance and half-life; assay type: in vitro ADME, human; conditions: for human liver microsomes Clint / half-life at 1 µM: 1 μM compound, 0.4 mg mL^–1 protein; for half-life at 1 µM: human, pooled human liver microsomes, pH 7.4, read-out: human liver microsomes t1/2
Method: as §2

[3] = oral 10 mg kg^–1 day^–1, four consecutive days

Compound | Ki (PfFNT) [nM] | effect on parasite load (P. falciparum 3D7) | blood concentration (peak) ([1]; oral 4 × 50 mg kg^–1) [μg mL^–1] | half-life ([1]; whole blood, oral 4 × 50 mg kg^–1, read-out: half-life from modeled blood profile) [h] | activity (reduction of parasitemia relative to untreated) (P. berghei; oral 3 mg kg^–1 day^–1, four consecutive days) [%] | activity (reduction of parasitemia relative to untreated) (P. berghei; [3]) [%] | activity (reduction of parasitemia relative to untreated) (P. berghei; oral 30 mg kg^–1 day^–1, four consecutive days) [%] | unbound fraction in plasma (albumin) [%] | albumin binding (albumin) [%] | human liver microsomes Clint [2] [mL min^–1 kg^–1] | half-life at 1 µM [2] [h] | activity (parasites cleared) (P. berghei; oral 50 mg kg^–1 day^–1, four consecutive days) [%] | microsomal clearance, times faster than that of 2 ([2]; human liver microsomes) [times]
CCCNc1ccc(C(=O)/C=C(\O)C(F)(F)C(F)(F)F)cn1 [7e, 4,4,5,5,5-Pentafluoro-3-hydroxy-1-(6-(propylamino)pyridin-3-yl)pent-2-en-1-one] | 22 ± 8 | decreased the parasite load below the starting parasitemia | ~2 | 2 to 4 | 3.5 | 15.4 | 34.2 | 1.54 | 98.46 | 462.00 | 0.05 | – | –
CC(=O)Nc1ccc(C(=O)/C=C(\O)C(F)(F)C(F)(F)F)cn1 [8a, N-[5-(4,4,5,5,5-Pentafluoro-3-hydroxypent-2-enoyl)pyridin-2-yl]acetamide] | 35 ± 8 | – | – | – | – | 76.0 | – | 6.31 | 93.69 | 10.64 | 2.17 | 99.7 | 2.7
